Assay: Determination of useful cationic compounds: dye mixed with organoclay, clean clay, quat or alone in water, centrifuged, examined visually
Format: physicochemical
Conditions: for Ionic character (cationic or anionic) concluded from the visual results: conclusion from Test Tubes 1-4
Excerpt: At the outset of the method of the present invention, it must first be determined if a particular compound or molecule will be able to undergo the method of enhancing its dispersibility and thereby its cationic properties as disclosed herein. Thus, a determination must be made (for example, if the ionic character of a certain compound is unknown) whether or not the ion or molecule comprises an cationic portion that will ion exchange onto the surface of a substrate such as a clay or an organoclay. Thus, the molecule or ion can be tested in order to determine whether it has a cationic character (and thus can undergo the present method) or an anionic character or a neutral character. In testing certain molecules or ions, the procedure described below was employed.
Using Jarocol Straw Yellow dye as a representative example, four 1 mg samples of the dye were weighed and placed in 4 test tubes.
Subsequently, 10 mL of water were added to each of the four test tubes, and all of the samples were mixed well for 30 seconds. The samples from each of the test tubes were then centrifuged for 15 minutes in a laboratory scale centrifuge.
Next, the resulting centrifuged samples were examined and analyzed (by being compared to the control sample) to determine whether the Jarocol Straw Yellow dye reacted with the organoclay, the clean clay, or the quat, so that it could then be decided if Jarocol Straw Yellow dye has the requisite cationic character to ion exchange onto the surface of a clay and thereby have increased dispersibility in various application systems.
The analysis herein was performed visually, since the six samples tested were dyes. However, non-dye samples may be analyzed through infrared spectroscopy, differential scanning calorimetry (DSC), gas chromatography, UV spectroscopy, thermogravimetric analysis, or the like. For example, for a non-dye sample, the clay may be separated from the water, both parts may be taken to dryness, and the IR spectrum of each may be recorded.
Just as Jarocol Straw Yellow dye was tested using the four test tubes, the other five dye samples were similarly tested.

Test Tube 4 (Control, sample only) visual result (1 mg dye only, 10 mL water, mixed 30 seconds, centrifuged 15 minutes) | Ionic character (cationic or anionic) concluded from the visual results | Compound | Test Tube 3 (10 mg Quat) visual result (1 mg dye + 10 mg quat, 10 mL water, mixed 30 seconds, centrifuged 15 minutes)
Water was red | anionic in nature | Cc1ccc(N=Nc2c([O-])c(C(=O)O)cc3ccccc23)c(S(=O)(=O)[O-])c1.[Na+].[Na+] [Lithol Rubine B] | formed a highly insoluble reaction product with the quat
 | exhibit anionic character to some extent | O=C([O-])C1=NN(c2ccc(S(=O)(=O)[O-])cc2)C(=O)C1N=Nc1ccc(S(=O)(=O)[O-])cc1.[Na+].[Na+].[Na+] (stereo not shown) [FD&C Yellow No. 5 dye] | 
 | exhibit anionic character to some extent | O=C([O-])c1ccccc1-c1c2cc(Br)c(=O)c(Br)c-2oc2c(Br)c([O-])c(Br)cc12.[Na+].[Na+] [D&C Red No. 22 dye] | 
 | have the requisite cationic character | CN(C)c1ccc2nc3ccc(=[N+](C)C)cc-3sc2c1 [Methylene Blue, laboratory reagent dye, methylene blue] | 
 | exhibit anionic character to some extent | CCN(Cc1cccc(S(=O)(=O)[O-])c1)c1ccc(C(=C2C=CC(=[N+](CC)Cc3cccc(S(=O)(=O)[O-])c3)C=C2)c2ccccc2S(=O)(=O)[O-])cc1.[Na+].[Na+] [FD&C Blue No. 1 dye] | 
